According to ChEMBL document CHEMBL5113530, “Butyrylation Meets Adipogenesis-Probed by a p300-Catalyzed Acylation-Specific Small Molecule Inhibitor: Implication in Anti-obesity Therapy” (J Med Chem, 2022):
Active and inactive are the calls of the source. The rule behind the calls is not given here.

Experiments:
[1] = Toxicity in female Sprague-Dawley rat assessed as average water intake measured per day at 1000 mg/kg, po administered as single dose measured on day 14 (Rvb =26 ml/day); type: organism-based; details: in vivo, 336 h, time 14 day
Mus musculus [2] = assay: Anti-obesity activity in C57BL6/J mouse model of high fat diet-induced obesity assessed as inhibition of H4K5 butyrylation level in liver at 50 mg/kg by DAPI staining based immunofluorescence microscopic analysis; type: functional, organism-based
[3] = Toxicity in male Sprague-Dawley rat assessed as average water intake measured per day at 500 mg/kg, po administered as single dose measured on day 7 (Rvb =30 ml/day); type: organism-based; details: in vivo, 168 h, time 7 day
Mus musculus [4] = assay: Anti-obesity activity in C57BL6/J mouse model of high fat diet-induced obesity assessed as daily food consumption measured per day per mouse at 50 mg/kg (reference value: 1.95547 +/- 0.23142 g); type: functional
[5] = Toxicity in male Sprague-Dawley rat assessed as average food intake at 250 mg/kg, po administered as single dose measured on day 1 (Rvb =20.38 g/day); type: organism-based; details: in vivo, 24 h, time 1 day
[6] = Mutagenicity in Salmonella typhimurium TA98 assessed as number of revertants measured per plate at 10 to 1000 incubated for 48 hrs in presence of rat liver S9 fraction by plate incorporation assay; type: toxicity; details: salmonella enterica subsp. enterica serovar typhimurium, s9, 48 h, dose 10-1000 µg
[7] = Toxicity in male Sprague-Dawley rat assessed as average food intake at 1000 mg/kg, po administered as single dose measured on day 1 (Rvb =20.38 g/day); type: organism-based; details: in vivo, 24 h, time 1 day
[8] = Toxicity in male Sprague-Dawley rat assessed as average water intake measured per day at 1000 mg/kg, po administered as single dose measured on day 1 (Rvb =32 ml/day); type: organism-based; details: in vivo, 24 h, time 1 day
3T3-L1 [9] = assay: Anti-adipogenic activity against mouse 3T3-L1 cells assessed as upregulation of TEAD4 mRNA expression at 25 uM measured after 7 days by qRT-PCR analysis; type: functional, cell-based; details: time 7.0 day
[10] = Toxicity in female Sprague-Dawley rat assessed as average food intake at 500 mg/kg, po administered as single dose measured on day 7 (Rvb =15.65 g/day); type: organism-based; details: in vivo, 168 h, time 7 day
[11] = Toxicity in female Sprague-Dawley rat assessed as effect on body weight at 500 mg/kg, po administered as single dose measured on day 1 (Rvb =152.21 +/- 6.58 g); type: organism-based; details: in vivo, 24 h, time 1 day
3T3-L1 [12] = assay: Anti-adipogenic activity against mouse 3T3-L1 cells assessed as downregulation of FASN mRNA expression at 25 uM measured after 7 days by qRT-PCR analysis; type: functional, cell-based; details: time 7.0 day
[13] = test system: Histone acetyltransferase p300 (Homo sapiens), Q09472 [C1438A]; assay: (§1) Inhibition of His-tagged EP300 C1438A mutant catalytic domain catalyzed butyrylation (unknown origin) expressed in Escherichia coli BL21 (DE3) using Histone H3 as substrate at 25 uM preincubated with compound for 10 mins followed by butyryl-CoA addition and measured after 10 mins by Western blot analysis; details: time 20.0 min
[14] = Toxicity in male Sprague-Dawley rat assessed as average food intake at 1000 mg/kg, po administered as single dose measured on day 14 (Rvb =21.24 g/day); type: organism-based; details: in vivo, 336 h, time 14 day
Mus musculus [15] = assay: Anti-obesity activity in db/db mouse assessed as inhibition of Adipoq-gene expression at 50 mg/kg, po qd administered for 30 days by qRT-PCR analysis; type: functional, organism-based; details: time 30.0 day
[16] = Toxicity in female Sprague-Dawley rat assessed as average food intake at 250 mg/kg, po administered as single dose measured on day 14 (Rvb =15.95 g/day); type: organism-based; details: in vivo, 336 h, time 14 day
[17] = Toxicity in male Sprague-Dawley rat assessed as effect on body weight at 1000 mg/kg, po administered as single dose measured on day 7 (reference value: 217.38 +/- 11.38 g); type: organism-based; details: in vivo, 168 h, time 7 day
[18] = Toxicity in male Sprague-Dawley rat assessed as effect on body weight at 250 mg/kg, po administered as single dose measured on day 7 (reference value: 217.38 +/- 11.38 g); type: organism-based; details: in vivo, 168 h, time 7 day
[19] = Toxicity in male Sprague-Dawley rat assessed as effect on body weight at 500 mg/kg, po administered as single dose measured on day 1 (reference value: 174.75 +/- 7.61 g); type: organism-based; details: in vivo, 24 h, time 1 day
3T3-L1 [20] = assay: Anti-adipogenic activity against mouse 3T3-L1 cells assessed as downregulation of ADIPOQ mRNA expression at 25 uM measured after 7 days by qRT-PCR analysis; type: functional, cell-based; details: time 7.0 day
3T3-L1 [21] = assay: Anti-adipogenic activity against mouse 3T3-L1 cells assessed as downregulation of CEBPD mRNA expression at 25 uM measured after 7 days by qRT-PCR analysis; type: functional, cell-based; details: time 7.0 day
3T3-L1 [22] = assay: Anti-adipogenic activity against mouse 3T3-L1 cells assessed as downregulation of LEP mRNA expression at 25 uM measured after 7 days by qRT-PCR analysis; type: functional, cell-based; details: time 7.0 day
[23] = test system: Histone acetyltransferase p300 (Homo sapiens), Q09472 [C1438A]; assay: as §1, with “of […]” for “of”, “acetylation” for “butyrylation”, “acetyl-CoA” for “butyryl-CoA”; details: time 20.0 min
Mus musculus [24] = assay: Anti-obesity activity in C57BL6/J mouse model of high fat diet-induced obesity assessed as reduction in hepatic steatosis at 50 mg/kg by hematoxylin and eosin staining based assay; type: functional, organism-based
[25] = Toxicity in female Sprague-Dawley rat assessed as average food intake at 250 mg/kg, po administered as single dose measured on day 1 (Rvb =17.84 g/day); type: organism-based; details: in vivo, 24 h, time 1 day
[26] = Mutagenicity in Salmonella typhimurium TA102 assessed as number of revertants measured per plate at 10 to 1000 incubated for 48 hrs in absence of rat liver S9 fraction by plate incorporation assay; type: toxicity; details: salmonella enterica subsp. enterica serovar typhimurium, s9, 48 h, dose 10-1000 µg
[27] = Toxicity in female Sprague-Dawley rat assessed as effect on body weight at 500 mg/kg, po administered as single dose measured on day 7 (Rvb =169.81 +/- 6.57 g); type: organism-based; details: in vivo, 168 h, time 7 day
[28] = Toxicity in female Sprague-Dawley rat assessed as effect on body weight at 250 mg/kg, po administered as single dose measured on day 7 (Rvb =169.81 +/- 6.57 g); type: organism-based; details: in vivo, 168 h, time 7 day
Mus musculus [29] = assay: Anti-obesity activity in db/db mouse assessed as inhibition of lep gene expression at 50 mg/kg, po qd administered for 30 days by qRT-PCR analysis; type: functional, organism-based; details: time 30.0 day
[30] = Toxicity in female Sprague-Dawley rat assessed as average food intake at 1000 mg/kg, po administered as single dose measured on day 1 (Rvb =17.84 g/day); type: organism-based; details: in vivo, 24 h, time 1 day

Histone acetyltransferase p300 (Homo sapiens), Q09472 [C1438A], sequence (Q09472 whole entry C1438A, the tested form may be a part): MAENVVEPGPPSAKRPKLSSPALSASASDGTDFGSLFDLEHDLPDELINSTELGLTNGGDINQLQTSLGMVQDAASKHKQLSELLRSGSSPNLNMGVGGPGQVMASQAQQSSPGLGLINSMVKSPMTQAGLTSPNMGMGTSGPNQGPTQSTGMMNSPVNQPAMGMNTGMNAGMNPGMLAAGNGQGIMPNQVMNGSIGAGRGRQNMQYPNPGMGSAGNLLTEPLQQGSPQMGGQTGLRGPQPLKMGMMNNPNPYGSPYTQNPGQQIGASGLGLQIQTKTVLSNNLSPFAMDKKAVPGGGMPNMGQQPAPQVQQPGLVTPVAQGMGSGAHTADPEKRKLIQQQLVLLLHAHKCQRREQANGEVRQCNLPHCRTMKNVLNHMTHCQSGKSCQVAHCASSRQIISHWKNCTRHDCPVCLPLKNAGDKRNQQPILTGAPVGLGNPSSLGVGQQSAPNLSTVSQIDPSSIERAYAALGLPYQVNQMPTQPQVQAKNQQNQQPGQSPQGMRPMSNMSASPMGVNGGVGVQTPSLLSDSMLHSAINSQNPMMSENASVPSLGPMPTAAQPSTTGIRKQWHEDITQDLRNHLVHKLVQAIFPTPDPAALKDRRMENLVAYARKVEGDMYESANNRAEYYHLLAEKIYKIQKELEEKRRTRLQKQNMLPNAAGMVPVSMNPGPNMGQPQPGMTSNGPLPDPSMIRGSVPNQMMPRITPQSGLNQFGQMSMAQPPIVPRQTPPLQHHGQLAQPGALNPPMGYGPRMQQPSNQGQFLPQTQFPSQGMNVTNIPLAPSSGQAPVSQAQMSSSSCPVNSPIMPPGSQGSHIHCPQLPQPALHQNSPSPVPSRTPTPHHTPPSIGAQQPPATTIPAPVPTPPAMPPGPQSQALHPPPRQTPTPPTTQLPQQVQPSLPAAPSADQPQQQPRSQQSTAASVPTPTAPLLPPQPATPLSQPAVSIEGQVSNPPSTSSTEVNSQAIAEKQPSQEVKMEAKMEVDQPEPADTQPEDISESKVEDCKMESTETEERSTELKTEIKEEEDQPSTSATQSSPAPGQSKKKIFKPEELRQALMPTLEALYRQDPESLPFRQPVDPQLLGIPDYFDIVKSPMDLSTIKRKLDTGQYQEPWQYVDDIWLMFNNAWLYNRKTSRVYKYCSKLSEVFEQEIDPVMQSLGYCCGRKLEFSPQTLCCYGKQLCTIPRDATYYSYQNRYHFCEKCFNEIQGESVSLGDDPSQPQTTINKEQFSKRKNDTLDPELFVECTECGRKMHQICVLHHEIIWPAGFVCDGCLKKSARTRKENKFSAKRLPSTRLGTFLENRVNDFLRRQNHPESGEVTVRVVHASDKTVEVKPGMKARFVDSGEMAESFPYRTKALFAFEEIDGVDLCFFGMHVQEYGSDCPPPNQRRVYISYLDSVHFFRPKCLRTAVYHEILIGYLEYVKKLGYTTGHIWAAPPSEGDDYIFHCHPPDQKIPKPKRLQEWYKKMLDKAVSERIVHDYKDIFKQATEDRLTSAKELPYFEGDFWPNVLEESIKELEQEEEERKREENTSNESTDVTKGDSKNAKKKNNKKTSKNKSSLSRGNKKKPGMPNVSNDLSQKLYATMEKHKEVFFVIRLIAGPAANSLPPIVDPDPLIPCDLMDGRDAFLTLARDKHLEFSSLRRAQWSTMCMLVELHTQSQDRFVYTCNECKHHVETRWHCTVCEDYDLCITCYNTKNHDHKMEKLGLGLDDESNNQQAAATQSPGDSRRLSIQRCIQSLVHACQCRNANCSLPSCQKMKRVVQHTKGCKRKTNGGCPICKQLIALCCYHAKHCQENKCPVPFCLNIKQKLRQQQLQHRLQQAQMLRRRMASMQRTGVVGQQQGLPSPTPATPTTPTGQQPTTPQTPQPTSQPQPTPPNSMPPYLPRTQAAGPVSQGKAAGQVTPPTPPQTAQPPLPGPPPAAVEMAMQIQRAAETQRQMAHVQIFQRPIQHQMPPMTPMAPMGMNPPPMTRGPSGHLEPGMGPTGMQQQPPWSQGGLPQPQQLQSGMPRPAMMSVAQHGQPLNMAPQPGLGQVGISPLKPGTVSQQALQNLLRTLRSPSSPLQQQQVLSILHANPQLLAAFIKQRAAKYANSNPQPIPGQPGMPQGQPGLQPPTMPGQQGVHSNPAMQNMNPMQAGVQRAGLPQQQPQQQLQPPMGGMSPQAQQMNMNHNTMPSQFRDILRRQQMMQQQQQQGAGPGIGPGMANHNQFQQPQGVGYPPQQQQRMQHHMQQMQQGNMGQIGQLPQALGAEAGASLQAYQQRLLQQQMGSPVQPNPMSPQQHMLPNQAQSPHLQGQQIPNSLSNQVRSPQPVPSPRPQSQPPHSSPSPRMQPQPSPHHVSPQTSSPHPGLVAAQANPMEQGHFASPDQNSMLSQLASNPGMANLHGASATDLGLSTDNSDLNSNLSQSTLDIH

With COc1ccc(C(=O)C2=C3OC(C)(C)[C@@H](CC=C(C)C)C[C@@]34C[C@@H](CC=C(C)C)C(C)(C)[C@](CC=C(C)C)(C2=O)C4=O)cc1OC the Activity [1] was 32 mL, the Activity (Mus musculus [2]) was “Active” and the Activity [3] was 33 mL. For the same compound, the Activity (Mus musculus [4]) was 2.041 g, the Activity [5] was 20.03 g/day and the Activity [6] was “Non-Toxic”. The Activity [7] was 20.76 g/day, the Activity [8] was 34 mL and the Activity (3T3-L1 [9]) was “Active”. The Activity [10] was 18.13 g/day, the Activity [11] was 153.32 g and the Activity (3T3-L1 [12]) was “Active”. For the same compound, the inhibition [13] was “Active”, the Activity [14] was 19.95 g/day and the Activity (Mus musculus [15]) was “Active”. The Activity [16] was 16.65 g/day, the Activity [17] was 217.65 g and the Activity [18] was 216.62 g. For the same compound, the Activity [19] was 176.3 g, the Activity (3T3-L1 [20]) was “Active” and the Activity (3T3-L1 [21]) was “Active”. For the same compound, the Activity (3T3-L1 [22]) was “Active”, the inhibition [23] was “Active” and the Activity (Mus musculus [24]) was “Active”. For the same compound, the Activity [25] was 20 g/day, the Activity [26] was “Non-Toxic” and the Activity [27] was 176.55 g. For the same compound, the Activity [28] was 174.54 g, the Activity (Mus musculus [29]) was “Active” and the Activity [30] was 18.17 g/day.
